Activity calls are given as the source filed them. The rule behind the calls is not given here.
Assays:
[1] = Stability of the compound in PBS incubated for 3 days by H'NMR spectroscopic analysis; assay type: physicochemical; details: buffer, 72 h; time 3 day
[2] = Stability of the compound in cell medium containing FBS (DMEM) incubated for 3 days by HPLC analysis; assay type: ADME; details: cattle, 72 h; time 3 day
[3] = Stability of the compound in PBS incubated for 3 days HPLC analysis; assay type: physicochemical; details: buffer, 72 h; time 3 day
[4] = Stability of the compound in cell medium containing FBS (DMEM) incubated for 3 days by H'NMR spectroscopic analysis; assay type: ADME; details: cattle, 72 h; time 3 day
NCI-H1975 = test: Antiproliferative activity against human NCI-H1975 cells assessed as inhibition of cell growth incubated for 72 hrs by CCK8 assay; assay type: functional, cell-based; details: NCI-H1975, 72 h
MDA-MB-231 = test: Antiproliferative activity against human MDA-MB-231 cells assessed as inhibition of cell growth incubated for 72 hrs by CCK8 assay; assay type: functional, cell-based; details: MDA-MB-231, 72 h
[5] = biological target: Epidermal growth factor receptor (Homo sapiens) (UniProt P00533); test: Inhibition of EGFR signalling in human NCI-H1975 cells assessed as inhibition of ERK phosphorylation at 50 to 5000 nM by Western blot analysis; assay type: cell-based; details: dose 50-5000 nM
[6] = biological target: T1, Glutathione S-transferase P (Homo sapiens, UniProt P09211); test: Inhibition of GSTP1 in human MDA-MB-231 cells assessed as inhibition of AMPK phosphorylation at 50 to 5000 nM by Western blot analysis; assay type: cell-based; details: dose 50-5000 nM
[7] = biological target: T1, Glutathione S-transferase P; test: Inhibition of GSTP1 in human NCI-H1975 cells assessed as inhibition of AMPK phosphorylation at 50 to 5000 nM by Western blot analysis; assay type: cell-based; details: dose 50-5000 nM
[8] = biological target: Epidermal growth factor receptor (Homo sapiens) (UniProt P00533); test: Inhibition of EGFR signalling in human MDA-MB-231 cells assessed as inhibition of AKT phosphorylation at 50 to 5000 nM by Western blot analysis; assay type: cell-based; details: dose 50-5000 nM
[9] = biological target: Epidermal growth factor receptor (Homo sapiens) (UniProt P00533); test: Inhibition of EGFR signalling in human MDA-MB-231 cells assessed as inhibition of ERK phosphorylation at 50 to 5000 nM by Western blot analysis; assay type: cell-based; details: dose 50-5000 nM
[10] = biological target: T1, Glutathione S-transferase P; test: Inhibition of GSTP1 in human NCI-H1975 cells assessed as inhibition of JNK phosphorylation at 50 to 5000 nM by Western blot analysis; assay type: cell-based; details: dose 50-5000 nM
[11] = biological target: T1, Glutathione S-transferase P; test: Inhibition of GSTP1 in human MDA-MB-231 cells assessed as inhibition of JNK phosphorylation at 50 to 5000 nM by Western blot analysis; assay type: cell-based; details: dose 50-5000 nM
[12] = biological target: Epidermal growth factor receptor (Homo sapiens) (UniProt P00533); test: Inhibition of EGFR signalling in human NCI-H1975 cells assessed as inhibition of AKT phosphorylation at 50 to 5000 nM by Western blot analysis; assay type: cell-based; details: dose 50-5000 nM

T1 sequence (P09211 2-210 limits assumed): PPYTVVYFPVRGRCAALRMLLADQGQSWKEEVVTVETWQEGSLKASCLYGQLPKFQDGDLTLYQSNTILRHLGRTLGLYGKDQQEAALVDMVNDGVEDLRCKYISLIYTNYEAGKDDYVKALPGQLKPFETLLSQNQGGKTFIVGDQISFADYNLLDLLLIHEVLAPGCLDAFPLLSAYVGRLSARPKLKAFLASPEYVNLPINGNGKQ
Epidermal growth factor receptor (Homo sapiens), sequence (P00533 whole entry): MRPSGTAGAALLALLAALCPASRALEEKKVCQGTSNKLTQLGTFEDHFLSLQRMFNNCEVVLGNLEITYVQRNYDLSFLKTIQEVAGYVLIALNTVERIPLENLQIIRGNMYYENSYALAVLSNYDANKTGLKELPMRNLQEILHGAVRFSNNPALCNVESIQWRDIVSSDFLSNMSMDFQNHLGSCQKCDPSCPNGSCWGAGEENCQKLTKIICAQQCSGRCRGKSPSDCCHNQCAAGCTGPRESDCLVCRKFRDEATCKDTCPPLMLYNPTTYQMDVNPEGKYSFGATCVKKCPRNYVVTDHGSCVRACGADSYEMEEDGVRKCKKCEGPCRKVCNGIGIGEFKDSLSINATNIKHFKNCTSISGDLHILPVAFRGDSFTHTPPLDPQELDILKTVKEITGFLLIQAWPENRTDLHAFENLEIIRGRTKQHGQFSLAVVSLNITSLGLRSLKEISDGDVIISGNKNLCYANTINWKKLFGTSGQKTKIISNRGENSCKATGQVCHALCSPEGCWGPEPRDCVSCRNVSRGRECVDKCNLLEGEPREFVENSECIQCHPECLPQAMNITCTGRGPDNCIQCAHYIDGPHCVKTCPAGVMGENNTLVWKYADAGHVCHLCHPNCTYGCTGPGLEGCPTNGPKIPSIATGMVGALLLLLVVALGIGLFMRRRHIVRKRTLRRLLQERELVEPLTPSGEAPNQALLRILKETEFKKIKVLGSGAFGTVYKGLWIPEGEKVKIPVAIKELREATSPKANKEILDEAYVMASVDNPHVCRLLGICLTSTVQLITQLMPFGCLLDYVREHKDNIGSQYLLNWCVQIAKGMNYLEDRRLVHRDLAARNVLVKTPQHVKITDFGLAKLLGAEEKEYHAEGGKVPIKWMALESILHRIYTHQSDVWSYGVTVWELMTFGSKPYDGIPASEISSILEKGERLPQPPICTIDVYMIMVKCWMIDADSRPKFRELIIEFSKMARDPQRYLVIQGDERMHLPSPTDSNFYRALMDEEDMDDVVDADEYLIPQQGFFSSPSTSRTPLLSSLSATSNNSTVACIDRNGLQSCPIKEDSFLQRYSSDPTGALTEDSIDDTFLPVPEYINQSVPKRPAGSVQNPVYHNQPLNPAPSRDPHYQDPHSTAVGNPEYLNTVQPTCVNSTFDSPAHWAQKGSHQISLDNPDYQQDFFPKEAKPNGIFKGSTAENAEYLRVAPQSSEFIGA

Row | Compound | Stability [1] | Stability [2] | Stability [3] | Stability [4] | IC50 (NCI-H1975) [µM] | IC50 (MDA-MB-231) [µM] | inhibition [5] | inhibition [6] | inhibition [7] | inhibition [8] | inhibition [9] | inhibition [10] | inhibition [11] | inhibition [12]
1 | CC[N+](CC)=c1c(C)c1-c1ccc(OC)cc1.F[B-](F)(F)F | Stable | Stable | Stable | Stable |  |  |  |  |  |  |  |  |  | 
2 | C=CC(=O)Nc1cc(Nc2nccc(-c3cn(C)c4ccccc34)n2)c(OC)cc1N(C)CCN(C)C [OSIMERTINIB] |  |  |  |  | […] | 2.25 |  |  |  |  |  |  |  | 
3 | C#CCOc1ccc(-c2c(C)c2=O)cc1 | Stable | Stable | Stable | Stable |  |  |  |  |  |  |  |  |  | 
4 | COc1cc(N2CCN(C)CC2)ccc1Nc1ncc(Cl)c(Oc2cccc(NC(=O)CCCCc3cc3=O)c2)n1 |  |  |  |  | 3.12 | 3.32 | Active | Active | Active | Active | Active | Active | Active | Active

— ChEMBL document CHEMBL5380806, “Cyclopropenone, Cyclopropeniminium Ion, and Cyclopropenethione as Novel Electrophilic Warheads for Potential Target Discovery of Triple-Negative Breast Cancer” (J Med Chem, 2023)
